Assay results published in ChEMBL document CHEMBL4004860, “Medicinal plants used as anthelmintics: Ethnomedical, pharmacological, and phytochemical studies” (Eur J Med Chem, 2017).
pIC50: −log10 of the molar value.

Legend:
Format in all cases: functional
Rodentolepis nana = test: Antihelmintic activity against Hymenolepis nana
[1] = system: Nippostrongylus brasiliensis; test: Nematocidal activity against Nippostrongylus brasiliensis L4 larval stage
Haemonchus contortus [2] = test: Antihelmintic activity against egg stage of Haemonchus contortus
Haemonchus contortus [3] = test: Antihelmintic activity against larval stage of Haemonchus contortus
Meloidogyne incognita [4] = test: Nematocidal activity against Meloidogyne incognita; details: for pIC50: Meloidogyne incognita
[5] = Antiparasitic activity against Taenia solium
Meloidogyne incognita [6] = test: Nematocidal activity against Meloidogyne incognita second-stage juveniles up to 72 hrs
Taenia crassiceps = test: Cysticidal activity against Taenia crassiceps cysts after 11 days by trypan blue exclusion method; details: 264 h
Caenorhabditis elegans = test: Nematocidal activity against Caenorhabditis elegans
Setaria cervi = test: Antiparasitic activity against Setaria cervi
Schistosoma mansoni = test: Antiparasitic activity against Schistosoma mansoni
Metaphire posthuma = test: Antihelmintic activity against Pheretima posthuma
Ascaridia galli = test: Antihelmintic activity against Ascaridia galli
Haemonchus contortus [7] = test: Antihelmintic activity against Haemonchus contortus L3 larval stage
[8] = system: Trichostrongylus colubriformis; test: Antihelmintic activity against Trichostrongylus colubriformis
[9] = system: Raillietina echinobothrida; test: Antiparasitic activity against Raillietina echinobothrida
Paramphistomum = test: Antiparasitic activity against Paramphistomum sp.
Brugia malayi = test: Antiparasitic activity against Brugia malayi
Ascaris suum = test: Antiparasitic activity against L3 and L4 larval stages of Ascaris suum
[10] = system: Bursaphelenchus xylophilus; test: Antiparasitic activity against Bursaphelenchus xylophilus
Panagrellus redivivus = test: Antiparasitic activity against Panagrellus redivivus
Haemonchus contortus [11] = test: Nematocidal activity against Haemonchus contortus
Meloidogyne incognita [12] = test: Nematocidal activity against Meloidogyne incognita second-stage juveniles after 3 days by light microscopic method

CCCCC[C@H](O)CC(=O)CCc1ccc(O)c(OC)c1 [GINGEROL]
EC (Rodentolepis nana): 0.001 mM

CCCCC/C=C/C(=O)CCc1ccc(O)c(OC)c1 [SHOGAOL]
EC (Rodentolepis nana): 0.001 mM

CCCC(=O)c1c(O)c(CC2=C(O)C(C)(C)C(O)=C(C(C)=O)C2=O)c(O)c(CC2=C(O)C(C)(C)C(O)=C(C(C)=O)C2=O)c1O
pIC50 [1]: 4.55

C=C1CC[C@H]2[C@@](C)(CCC[C@]2(C)C(=O)O)[C@@H]1C/C=C(\C)[C@@H]1CCc2c(O)c(C(=O)CCC)c(O)c(CC3=C(O)C(C)(C)C(O)=C(C(C)=O)C3=O)c2O1
pIC50 [1]: 4.47

C/C=C/c1ccc(OC)cc1 [ANETHOLE]
pIC50 (Haemonchus contortus [2]): 2.33 | pIC50 (Haemonchus contortus [3]): 1.85

CC(C)=CC(=O)O[C@@H]1C[C@@H](C)C(C)(O)[C@H]2C3=CC[C@@H]4[C@@]5(C)CC[C@H](O)C(C)(C)[C@@H]5CC[C@@]4(C)[C@]3(C)CC[C@]21C(=O)O (stereo not given in full)
EC (Meloidogyne incognita [4]): 1.75 mM

Cc1ccc(C(C)C)c(O)c1 [THYMOL]
pIC50 (Haemonchus contortus [2]): 2.44 | pIC50 (Haemonchus contortus [3]): 1.78

CC[C@H](CC[C@@H](C)[C@H]1CC[C@]2(C)[C@]1(C)CC[C@@H]1[C@@]3(C)CC[C@H](O[C@@H]4O[C@H](CO)[C@@H](O)[C@H](O)[C@H]4O)CC3=CC[C@]12C)C(C)C
EC [5]: 17.34 mM

CCCC(=O)C1=C(O)C(C)(C)C(O)=C(Cc2c(O)c(CC3=C(O)C(C)(C)C(O)=C(C(C)=O)C3=O)c(O)c(C(=O)CCC)c2O)C1=O
pIC50 [1]: 4.43

CC(C)[C@]12C=C[C@](C)(CC1)COOC2
pIC50 (Meloidogyne incognita [6]): 2.10

O=C1C[C@@H](c2ccccc2)Oc2cc(O)cc(O)c21 [PINOCEMBRIN]
pIC50 (Taenia crassiceps): 5.70

C[C@H]1[C@H](C)CC[C@]2(C(=O)O)CC[C@]3(C)C(=CC[C@@H]4[C@@]5(C)CC[C@H](O)C(C)(C)[C@@H]5CC[C@]43C)[C@H]12 [URSOLIC ACID]
pIC50 (Caenorhabditis elegans): 4.30 | EC (Meloidogyne incognita [4]): 2.18 mM | EC (Setaria cervi): 0.004 mM

C=C(C)[C@@H]1CCC2(C)OC2C1 (single isomer, unassigned; (+))
EC (Schistosoma mansoni): 0.16 mM

CCCCCCCCC[C@H](O)CC(=O)CCc1ccc(O)c(OC)c1
EC (Rodentolepis nana): 0.001 mM

CCN(CC)c1ccc2c(C)cc(=O)oc2c1
EC (Metaphire posthuma): 4.32 mM | EC (Ascaridia galli): 4.32 mM

C=C(C)[C@@H]1CC[C@]2(C(=O)O)CC[C@]3(C)[C@H](CC[C@@H]4[C@@]5(C)CC[C@H](O)C(C)(C)[C@@H]5CC[C@]43C)[C@@H]12 [BETULINIC ACID]
pIC50 (Haemonchus contortus [7]): 3.96 | pIC50 [8]: 3.74 | pIC50 (Caenorhabditis elegans): 3.66 to 3.82 | EC [5]: 21.9 mM

O=C1c2cccc(O)c2C(=O)C2C(O)=C(O)C(CO)=CC12 (stereo not given)
EC (Schistosoma mansoni): 0.17 mM

COc1cc(/C=C/C(=O)CC(=O)/C=C/c2ccc(O)c(OC)c2)ccc1O [CURCUMIN]
EC (Schistosoma mansoni): 0.005 mM

CC(C)[C@@]12C=C[C@@](C)(CC1)OO2 [(Z)-ASCARIDOLE]
pIC50 (Meloidogyne incognita [6]): 3.72

Cc1ccc(C(C)C)cc1 [P-CYMENE]
pIC50 (Meloidogyne incognita [6]): 2.49

CC(C)CCCCCCCCCCCCCC(=O)OC[C@@H](O)CO
EC [5]: 29.5 mM

O=c1c(-c2ccc(O)cc2)coc2cc(O)cc(O)c12 [GENISTEIN]
EC [9]: 0.74 mM | EC (Paramphistomum): 0.74 mM

C=C1CC[C@H]2[C@@](C)(CCC[C@]2(C)C(=O)O)[C@@H]1C/C=C(\C)[C@@H]1CCc2c(C)c(CC3=C(O)C(C)(C)C(O)=C(C(C)=O)C3=O)c(O)c(C(=O)CCC)c2O1
pIC50 [1]: 3.93

COc1cc(CC/C=C/C(=O)CCc2ccc(O)c(OC)c2)ccc1O
EC (Rodentolepis nana): 0.001 mM

CC[C@H](CC[C@@H](C)[C@H]1CC[C@@H]2[C@]1(C)CC[C@H]1[C@@]2(C)CC=C2C[C@@H](O[C@@H]3O[C@H](CO)[C@@H](O)[C@H](O)[C@H]3O)CC[C@@]21C)C(C)C
EC (Brugia malayi): >0.86 mM | pIC50 (Caenorhabditis elegans): 3.85

CCCCC[C@H](O)C[C@H](O)CCc1ccc(O)c(OC)c1
EC (Rodentolepis nana): 0.001 mM

O=C/C=C/c1ccccc1 [CINNAMALDEHYDE]
EC (Ascaris suum): 0.2 mM

CCO[C@@H]1O[C@H](CO)[C@H](O)[C@H](O)[C@H]1O
EC (Brugia malayi): >2.4 mM

CC(C)=C[C@H](O)C[C@@H](C)[C@H]1CC[C@@]2(C)[C@@H]3[C@@H](O)C=C4[C@@H](CC[C@H](O)C4(C)C)[C@@]3(C=O)CC[C@]12C
pIC50 (Caenorhabditis elegans): 4.52

C=C1C(=O)O[C@@H]2[C@H]1CC/C(C)=C/CC[C@]1(C)O[C@@H]21
pIC50 [10]: 3.55 | pIC50 (Panagrellus redivivus): 3.74

CC1(C)OC(=O)NC(C(=O)O)c2ccc(O)cc21 (stereo not given)
EC (Metaphire posthuma): 3.9 mM | EC (Ascaridia galli): 3.9 mM

CC1(C)C[C@@H](O)[C@]2(C(=O)O)CC[C@]3(C)C(=CC[C@@H]4[C@@]5(C)CCC(=O)C(C)(C)[C@@H]5CC[C@]43C)[C@@H]2C1
EC (Meloidogyne incognita [4]): 2.12 mM

CCCCC[C@H](O)C[C@@H](O)CCc1ccc(O)c(OC)c1
EC (Rodentolepis nana): 0.001 mM

C=CCc1ccc(O)c(OC)c1 [EUGENOL]
pIC50 (Caenorhabditis elegans): 3.43 | pIC50 (Meloidogyne incognita [4]): 3.40

C=C1C(=O)O[C@@H]2[C@H]3C(CO)=CC(=O)C3=C(C)CC[C@@H]12 [DEOXYLACTUCIN]
EC (Haemonchus contortus [11]): 4.99 mM

CCCCCC(=O)/C=C(O)/C=C/c1ccc(O)c(OC)c1
EC (Rodentolepis nana): 0.001 mM

C=C(C)[C@@H]1CC[C@]2(C)CC[C@]3(C)[C@H](CC[C@@H]4[C@@]5(C)CC[C@H](O)C(C)(C)[C@@H]5CC[C@]43C)[C@@H]12 [LUPEOL]
pIC50 (Haemonchus contortus [7]): 4.30 | pIC50 [8]: 3.72 | pIC50 (Caenorhabditis elegans): 5.22 to 5.30

C[C@H]1CC[C@@]2(OC1)O[C@H]1C[C@H]3[C@@H]4CC[C@H]5C[C@@H](O[C@@H]6O[C@H](CO)[C@H](O[C@@H]7O[C@H](CO)[C@@H](O)[C@H](O[C@@H]8OC[C@@H](O)[C@H](O)[C@H]8O)[C@H]7O[C@@H]7OC[C@@H](O)[C@H](O)[C@H]7O)[C@H](O)[C@H]6O[C@@H]6O[C@@H](C)[C@H](O)[C@@H](O)[C@H]6O)CC[C@]5(C)[C@H]4CC[C@]3(C)[C@H]1[C@@H]2C
pIC50 (Caenorhabditis elegans): 4.22

C[C@@H]1CC[C@]2(C(=O)O)CC[C@]3(C)C(=CC[C@@H]4[C@@]5(C)CC[C@H](O)C(C)(C)[C@@H]5CC[C@]43C)[C@@H]2[C@]1(C)O [POMOLIC ACID]
EC (Meloidogyne incognita [4]): 2.11 mM

CCCCCCCCC/C=C/C(=O)CCc1ccc(O)c(OC)c1
EC (Rodentolepis nana): 0.001 mM

C=CCc1ccc(OC)c(OC)c1 [METHYLEUGENOL]
pIC50 (Meloidogyne incognita [4]): 3.30

C=C1C(=O)O[C@@H]2[C@H]3C(CO)=CC(=O)C3=C(C)C[C@@H](O)[C@@H]12 [LACTUCIN]
EC (Haemonchus contortus [11]): 2.89 mM

COc1cc(CCC(=O)C[C@@H](O)CCc2ccc(O)c(OC)c2)ccc1O
EC (Rodentolepis nana): 0.001 mM

CCCCCCCCCCCCCCCCC(=O)OC[C@@H](O)CO
EC [5]: 29.5 mM

CC1(C)CC[C@]2(C(=O)O)CC[C@]3(C)C(=CC[C@@H]4[C@@]5(C)CC[C@H](O)C(C)(C)[C@@H]5CC[C@]43C)[C@@H]2C1 [OLEANOLIC_ACID]
EC (Brugia malayi): 0.06 to 0.13 mM

CCCCC[C@H](O)CC(=O)CCc1cc(O)c(O)c(OC)c1
EC (Rodentolepis nana): 0.001 mM

CC1=CC2C(=O)c3cccc(O)c3C(=O)C2C(O)=C1O (stereo not given)
EC (Schistosoma mansoni): 0.19 mM

CC(C)=CC(=O)O[C@@H]1CC(C)(C)C[C@H]2C3=CC(=O)[C@@H]4[C@]56CC[C@](O)(OC5)C(C)(C)[C@@H]6CC[C@@]4(C)[C@]3(C)CC[C@@]12C(=O)O
EC (Meloidogyne incognita [4]): 1.71 mM

O=c1cc(-c2ccccc2)oc2cc(O)cc(O)c12 [CHRYSIN]
pIC50 (Taenia crassiceps): 4.10

CCCCCCCCCCCCCCCCCCCCCC(=O)OC[C@@H](O)CO
EC [5]: 23.24 mM

O=C(O)c1ccc(O)c(O)c1 [PROTOCATECHUIC ACID]
EC (Meloidogyne incognita [12]): 0.78 mM

CC[C@H](CC[C@@H](C)[C@H]1CC[C@@H]2[C@]1(C)CC[C@H]1[C@@]2(C)CC=C2C[C@@H](O)CC[C@@]21C)C(C)C
EC (Brugia malayi): >1.2 mM

C=CCc1ccc(OC)cc1 [ESTRAGOLE]
pIC50 (Meloidogyne incognita [4]): 2.90

CCC/C=C/C(=O)CCc1ccc(O)c(OC)c1
EC (Rodentolepis nana): 0.001 mM

C=C1CC[C@H]2[C@@](C)(CCC[C@]2(C)C(=O)O)[C@@H]1C/C=C(\C)[C@H]1CCc2c(O)c(C(=O)CCC)c(O)c(CC3=C(O)C(C)(C)C(O)=C(C(C)=O)C3=O)c2O1
pIC50 [1]: 4.66

O=C1OCCN2Oc3ccccc3C12 (stereo not given)
EC (Metaphire posthuma): 5.23 mM | EC (Ascaridia galli): 5.23 mM

CCCC(=O)C1=C(O)C(C)(C)C(O)=C(Cc2c(OC)cc(O)c(C(=O)CCC)c2O)C1=O [DESASPIDIN]
EC (Schistosoma mansoni): 0.01 mM

CCCC(=O)C1=C(O)C(C)(C)C(O)=C(Cc2c(O)c(C)c(OC)c(C(=O)CCC)c2O)C1=O
EC (Schistosoma mansoni): 0.01 mM

CO[C@H]1[C@H](O)[C@@H](O)[C@@H](O)[C@H](O)[C@@H]1O [METHYLINOSITOL]
pIC50 (Haemonchus contortus [7]): 1.64
